Source: ChEMBL document CHEMBL1201862, “PubChem BioAssay data set” (2004)
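Each compound was tested at five concentrations against cells in 96-well plates for 48 hours. GI50: concentration for 50% inhibition of growth.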 Active and inactive are the calls of the source. Cut-off read from the data, not from the text of the source: active = GI50 up to about 1.1 µM and inactive = higher.

Tests used:
Assay in all cases: NCI tumour cell line growth inhibition, 48 h
HCC 2998 = tested on: HCC 2998
OVCAR-5 = tested on: OVCAR-5
U-251 = tested on: U-251
OVCAR-3 = tested on: OVCAR-3
Hs-578T = tested on: Hs-578T
K562 = tested on: K562
HCT-116 = tested on: HCT-116
SF-539 = tested on: SF-539
HT-29 = tested on: HT-29
M14 = tested on: M14
ACHN = tested on: ACHN
NCI/ADR-RES = tested on: NCI/ADR-RES
SK-OV-3 = tested on: SK-OV-3
LOX IMVI = tested on: LOX IMVI
HL-60 = tested on: HL-60
UACC-257 = tested on: UACC-257
SK-MEL-2 = tested on: SK-MEL-2
OVCAR-4 = tested on: OVCAR-4
HOP-62 = tested on: HOP-62
SNB-75 = tested on: SNB-75

Row | Compound | GI50 (HCC 2998) | GI50 (OVCAR-5) | GI50 (U-251) | GI50 (OVCAR-3) | GI50 (Hs-578T) | GI50 (K562) | GI50 (HCT-116) | GI50 (SF-539) | GI50 (HT-29) | GI50 (M14) | GI50 (ACHN) | GI50 (NCI/ADR-RES) | GI50 (SK-OV-3) | GI50 (LOX IMVI) | GI50 (HL-60) | GI50 (UACC-257) | GI50 (SK-MEL-2) | GI50 (OVCAR-4) | GI50 (HOP-62) | GI50 (SNB-75)
1 | CN(CC(=O)O)Cc1oc(CO)cc(=O)c1O | > 100 µM (inactive) | > 100 µM (inactive) | > 100 µM (inactive) | > 100 µM (inactive) | > 100 µM (inactive) | > 100 µM (inactive) | > 100 µM (inactive) | > 100 µM (inactive) | > 100 µM (inactive) | > 100 µM (inactive) | > 100 µM (inactive) | > 100 µM (inactive) | > 100 µM (inactive) | > 100 µM (inactive) | 30 µM (inactive) | > 100 µM (inactive) | > 100 µM (inactive) | > 100 µM (inactive) | > 100 µM (inactive) | > 100 µM (inactive)
2 | Cc1c(C#N)c2nnn(-c3ccc(Cl)cc3)c(=O)n2c1-c1ccccc1 | 0.0713 µM (active) | 0.247 µM (active) | 0.0815 µM (active) | 0.047 µM (active) | 0.158 µM (active) | 0.0586 µM (active) | 0.0649 µM (active) | 0.0492 µM (active) | 0.0553 µM (active) | 0.0608 µM (active) | 0.929 µM (active) | 0.0693 µM (active) | 0.145 µM (active) | 0.221 µM (active) | 0.0752 µM (active) | 3.15 µM (inactive) | 0.0746 µM (active) | 0.351 µM (active) | 0.108 µM (active) | 0.275 µM (active)
3 | CN(O)C(=O)c1ccc(OCc2cccc(Cl)c2)cc1 | 15.3 µM (inactive) | > 62.1 µM (inactive) | 15.2 µM (inactive) | 19.2 µM (inactive) | 71.3 µM (inactive) | 22.6 µM (inactive) | 8.45 µM (inactive) | 19 µM (inactive) | 14.6 µM (inactive) | 16.7 µM (inactive) | 8.51 µM (inactive) | 13.7 µM (inactive) | 24.3 µM (inactive) | 7.94 µM (inactive) | 6.12 µM (inactive) | 38.2 µM (inactive) | 34.4 µM (inactive) | 21.6 µM (inactive) | 16.7 µM (inactive) | 47.1 µM (inactive)
4 | N#CCc1nc(Cc2ccccc2)n[nH]1 | > 100 µM (inactive) | > 100 µM (inactive) | > 100 µM (inactive) | > 100 µM (inactive) | > 100 µM (inactive) | > 100 µM (inactive) | > 100 µM (inactive) | > 100 µM (inactive) | > 100 µM (inactive) | > 100 µM (inactive) | > 100 µM (inactive) | > 100 µM (inactive) | > 100 µM (inactive) | > 100 µM (inactive) | > 100 µM (inactive) | > 100 µM (inactive) | > 100 µM (inactive) | > 100 µM (inactive) | > 100 µM (inactive) | > 100 µM (inactive)
5 | COc1ccc(/C(CC2OC(=O)c3ccccc32)=N\NC(=O)C[N+](C)(C)C)cc1 (stereo not given) | 16.3 µM (inactive) | > 100 µM (inactive) | 17.2 µM (inactive) | 30.3 µM (inactive) | 36.7 µM (inactive) | 19.2 µM (inactive) | 22.5 µM (inactive) | 31.2 µM (inactive) | 19.2 µM (inactive) | 38 µM (inactive) | 28.2 µM (inactive) | 21.2 µM (inactive) | 38.8 µM (inactive) | 24.1 µM (inactive) | 33.4 µM (inactive) | 31.3 µM (inactive) | 23.9 µM (inactive) | 22.6 µM (inactive) | 19.2 µM (inactive) | 27.7 µM (inactive)
6 | C=C(O)c1ccccc1C#Cc1ccccc1C(=O)OC | > 10 µM (inactive) | > 10 µM (inactive) | > 10 µM (inactive) | > 10 µM (inactive) | > 10 µM (inactive) | > 10 µM (inactive) | > 10 µM (inactive) | > 10 µM (inactive) | > 10 µM (inactive) | > 10 µM (inactive) | > 10 µM (inactive) | > 10 µM (inactive) | > 10 µM (inactive) | > 10 µM (inactive) | > 10 µM (inactive) | > 10 µM (inactive) | > 10 µM (inactive) | > 10 µM (inactive) | > 10 µM (inactive) | 3.66 µM (inactive)
7 | N#Cc1cccc(C2ON=C(c3ccc([N+](=O)[O-])cc3)N2C23CC4CC(CC(C4)C2)C3)c1 (stereo not given) | > 100 µM (inactive) | 3.21 µM (inactive) | > 100 µM (inactive) | 39.3 µM (inactive) | 39.8 µM (inactive) | > 100 µM (inactive) | 6.21 µM (inactive) | > 100 µM (inactive) | > 100 µM (inactive) | 57.8 µM (inactive) | > 100 µM (inactive) | > 100 µM (inactive) | > 100 µM (inactive) | 74.1 µM (inactive) | 8.69 µM (inactive) | > 100 µM (inactive) | 16.7 µM (inactive) | 26.9 µM (inactive) | > 100 µM (inactive) | > 100 µM (inactive)
8 | O=C1c2ccccc2S(=O)(=O)c2ccccc21 | > 100 µM (inactive) | > 100 µM (inactive) | > 100 µM (inactive) | > 100 µM (inactive) | 72.1 µM (inactive) | > 100 µM (inactive) | > 100 µM (inactive) | > 100 µM (inactive) | > 100 µM (inactive) | > 100 µM (inactive) | > 100 µM (inactive) | > 100 µM (inactive) | > 100 µM (inactive) | > 100 µM (inactive) | > 100 µM (inactive) | > 100 µM (inactive) | > 100 µM (inactive) | > 100 µM (inactive) | > 100 µM (inactive) | > 100 µM (inactive)
9 | O=C(/C=C/c1ccccc1)c1ccccc1 [CHALCONE] | > 10 µM (inactive) | > 10 µM (inactive) | > 10 µM (inactive) | > 10 µM (inactive) | > 10 µM (inactive) | > 4.84 µM (inactive) | 2.01 µM (inactive) | > 10 µM (inactive) | 6.07 µM (inactive) | > 10 µM (inactive) | > 10 µM (inactive) | > 10 µM (inactive) | > 10 µM (inactive) | 1.9 µM (inactive) | 4.07 µM (inactive) | > 10 µM (inactive) | > 10 µM (inactive) | > 10 µM (inactive) | > 10 µM (inactive) | > 10 µM (inactive)
